Like-named read-outs stand apart in the source and are kept apart here. Positions of bridges follow the written chain, without caps; N, C: chain ends. Non-standard residues stand in square brackets, D forms with d. Residues, ends and D or L forms follow the SMILES beside them. No end group written: not given here. *: point of attachment. Phe(4-guanidino) = N=C(N)Nc1ccc(C[C@H](N)C(=O)O)cc1; X3 = O=C1CNC(=O)N1[C@@H](Cc1ccccc1)C(=O)*; X4 = O=C1CCC(=O)N1[C@@H](Cc1ccccc1)C(=O)*; 2Nal = N[C@@H](Cc1ccc2ccccc2c1)C(=O)O; His(τ-Me) = Cn1cnc(C[C@H](N)C(=O)O)c1; Acetyl(4-pyridyl) = O=C(Cc1ccncc1)*; Bta = N[C@@H](Cc1csc2ccccc12)C(=O)O; 4Pal = N[C@@H](Cc1ccncc1)C(=O)O; 2Thi = N[C@@H](Cc1cccs1)C(=O)O; dCha = N[C@H](CC1CCCCC1)C(=O)O; Pip = O=C(O)[C@@H]1CCCCN1; Nle = CCCC[C@H](N)C(=O)O; Orn = NCCC[C@H](N)C(=O)O
Tests used:
human C5aR (CD88) [1] = target: T1, human C5aR (CD88) (Homo sapiens, UniProt P21730); assay: Determination of EC50 values in an enzyme release assay (agonistic activity, no C5a added); assay type: cell-based; conditions: cellular assay, up to a concentration of at least 1430 nM
T1 construct: expressed in transfected cells; host or cells: rat basophilic leukemia cells (RBL)
T1 sequence (P21730 1-350): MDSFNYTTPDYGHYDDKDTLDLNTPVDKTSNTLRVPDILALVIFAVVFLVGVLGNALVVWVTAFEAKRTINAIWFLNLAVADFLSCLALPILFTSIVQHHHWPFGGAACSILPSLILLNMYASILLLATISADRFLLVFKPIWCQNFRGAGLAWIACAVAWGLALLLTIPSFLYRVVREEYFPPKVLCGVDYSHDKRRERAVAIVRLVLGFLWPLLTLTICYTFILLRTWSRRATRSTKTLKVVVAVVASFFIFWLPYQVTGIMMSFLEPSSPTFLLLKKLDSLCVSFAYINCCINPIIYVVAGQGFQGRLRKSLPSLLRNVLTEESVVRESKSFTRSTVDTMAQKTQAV
Procedure: The determination of the EC50 value was performed in a way similar to the procedure described in example 11, with the only exception that 30 μl of the compound to be tested were mixed with 75 μl of the cell suspension described in example 11. There was no preincubation or addition of C5a for stimulation of the enzyme release.

human C5aR (CD88) [2] = target: T1, human C5aR (CD88); assay: Determination of the IC50 value in an enzyme release assay (functional assay, antagonistic activity); assay type: cell-based; conditions: for IC50-value compared to compound 40 (in words): arginine replaced by hydrophobic substitutions; for IC50: antagonistic activity, enzyme release assay in RBL cells expressing human C5aR (CD88), read-out: activity (group)
human C5aR (CD88) [3] = target: T2, human C5aR (CD88) (human, UniProt P21730 1-350); assay: cell-based or functional assay
T2 sequence (looked up): T1 sequence (P21730 1-350)

[4] = noteworthy = IC50 of less than 200 nM in the functional assay

## CC(=O)N[C@@H](Cc1ccccc1)C(=O)N[C@@H](CCCN)C(=O)N1CCC[C@H]1C(=O)N[C@H](CC1CCCCC1)C(=O)N[C@@H](Cc1c[nH]c2ccccc12)C(=O)N[C@@H](Cc1ccccc1)C(N)=O [Compound 51, Ac-Phe-Orn-Pro-cha-Trp-Phe-NH2] (Ac-F[Orn]P[dCha]WF-NH2)
Human C5aR (CD88) [1]
  agonistic activity (in words): pure antagonists

## Ac-Phe-[Orn-Hyp(CONHCH2COH(OH)CH2OH)-cha-Trp-Phe]
Human C5aR (CD88) [2]
  inhibitory activity (in words): noteworthy inhibitory activity

## CC(=O)N[C@@H](Cc1ccccc1)C(=O)N[C@H]1CCCNC(=O)[C@H](Cc2ccc3ccccc3c2)NC(=O)[C@H](Cc2c[nH]c3ccccc23)NC(=O)[C@@H](CC2CCCCC2)NC(=O)[C@@H]2CCCN2C1=O [Compound 37, Ac-Phe-[Orn-Pro-cha-Trp-2Ni]] (Ac-F[Orn]P[dCha]W[2Nal]; lactam 2-C)
Human C5aR (CD88) [2]
  IC50-value compared to compound 40 (in words): without a significant increase of the IC50-value
Human C5aR (CD88) [2]; [4]
  inhibitory activity (in words): noteworthy inhibitory activity

## NCCC[C@H](NC(=O)[C@H](Cc1ccccc1)N1C(=O)CCC1=O)C(=O)N1CCC[C@H]1C(=O)N[C@H](CC1CCCCC1)C(=O)N[C@@H](Cc1csc2ccccc12)C(=O)N[C@@H](Cc1ccccc1)C(N)=O [Compound 133, (—CO—CH2—CH2—CO—)-Phe-Orn-Pro-cha-Bta-Phe-NH2] (X4-[Orn]P[dCha][Bta]F-NH2)
Human C5aR (CD88) [2]
  IC50: 200 to 2000 nM

## Ac-Phe-[Orn-Pro-cha-Trp-Ppa] (Ac-F[Orn]P[dCha]W[4Pal]; lactam 2-C (inferred))
Human C5aR (CD88) [2]; [4]
  inhibitory activity (in words): noteworthy inhibitory activity

## Ac-Phe-[Orn-Ser-cha-Trp-Phe]
Human C5aR (CD88) [2]; [4]
  inhibitory activity (in words): noteworthy inhibitory activity

## CC(=O)N[C@@H](Cc1ccccc1)C(=O)N[C@@H](CCCN)C(=O)N1CCCC[C@H]1C(=O)N[C@H](CC1CCCCC1)C(=O)N[C@@H](Cc1c[nH]c2ccccc12)C(=O)N[C@@H](Cc1ccccc1)C(N)=O [Compound 55, Ac-Phe-Orn-Pip-cha-Trp-Phe-NH2] (Ac-F[Orn][Pip][dCha]WF-NH2)
Human C5aR (CD88) [1]
  agonistic activity (in words): pure antagonists

## Ac-Phe-[Orn-Hyp(COCH2OCH2CH2OCH2CH2OCH3)-cha-Trp-Phe]
Human C5aR (CD88) [2]; [4]
  inhibitory activity (in words): noteworthy inhibitory activity

## CC(=O)N[C@@H](Cc1ccccc1)C(=O)N[C@H]1CCCNC(=O)[C@H](Cc2cn(C)cn2)NC(=O)[C@H](Cc2c[nH]c3ccccc23)NC(=O)[C@@H](CC2CCCCC2)NC(=O)[C@@H]2CCCN2C1=O [Compound 20, Ac-Phe-[Orn-Pro-cha-Trp-Ecr]] (Ac-F[Orn]P[dCha]W[His(τ-Me)]; lactam 2-C)
Human C5aR (CD88) [2]; [4]
  inhibitory activity (in words): noteworthy inhibitory activity

## CC(=O)N[C@@H](Cc1ccccc1)C(=O)N[C@H]1CCCNC(=O)[C@H](Cc2cccs2)NC(=O)[C@H](Cc2c[nH]c3ccccc23)NC(=O)[C@@H](CC2CCCCC2)NC(=O)[C@@H]2CCCN2C1=O [Compound 38, Ac-Phe-[Orn-Pro-cha-Trp-Thi]] (Ac-F[Orn]P[dCha]W[2Thi]; lactam 2-C)
Human C5aR (CD88) [2]
  IC50-value compared to compound 40 (in words): without a significant increase of the IC50-value
Human C5aR (CD88) [2]; [4]
  inhibitory activity (in words): noteworthy inhibitory activity

## CCSC[C@@H]1NC(=O)[C@H](Cc2c[nH]c3ccccc23)NC(=O)[C@@H](CC2CCCCC2)NC(=O)[C@@H]2CCCN2C(=O)[C@@H](NC(=O)[C@H](Cc2ccccc2)NC(C)=O)CCCNC1=O [Compound 34, Ac-Phe-[Orn-Pro-cha-Trp-Ebd]] (Ac-F[Orn]P[dCha]WC(Et); lactam 2-C)
Human C5aR (CD88) [2]
  IC50-value compared to compound 40 (in words): without a significant increase of the IC50-value
Human C5aR (CD88) [2]; [4]
  inhibitory activity (in words): noteworthy inhibitory activity

## NCCC[C@H](NC(=O)[C@H](Cc1ccccc1)N1C(=O)CNC1=O)C(=O)N1CCC[C@H]1C(=O)N[C@H](CC1CCCCC1)C(=O)N[C@@H](Cc1csc2ccccc12)C(=O)N[C@@H](Cc1ccccc1)C(N)=O [Compound 130, (—CO—CH2—NH—CO—)-Phe-Orn-Pro-cha-Bta-Phe-NH2] (X3-[Orn]P[dCha][Bta]F-NH2)
Human C5aR (CD88) [2]
  IC50: 50 to 200 nM

## {Acetyl(4-pyridyl)}-F[Orn]P[dCha]W[Nle] (lactam 2-C (inferred)) [Fbi-Phe-[Orn-Pro-cha-Trp-Nle]]
Human C5aR (CD88) [3]
  IC50 activity group, enzyme release assay: ≤ 200 nM

B1: Ac-Phe-[Orn-Pro-cha-Trp-Guf] (peptide)
peptide: Ac-F[Orn]P[dCha]W[Phe(4-guanidino)]
modifications: lactam (positions not given here); not fully specified (bridges); printed as Ac-Phe-[Orn-Pro-cha-Trp-Guf]
Human C5aR (CD88) [3]
  IC50 activity group, enzyme release assay: ≤ 2000 nM
